Test results published in patent US20050163850A1, “Administration of levodopa and carbidopa” (priority 2003, published 2005).
Values joined by “and” are separate entries in the source; they are usually repeats but may differ in a detail not shown here. Identical values can stand only once. Like-named read-outs stand apart in the source and are kept apart here.

Tests used:
[1] = Intravenous levodopa group of Example 10, levodopa plasma level; format: in vivo; details: 0.4 mg levodopa/kg, individual rats 1-3 (Table C)
Method: Another group of rats were treated with levodopa intravenously, at a dose of 0.4 mg/kg.

[2] = iv, 0.4 mg levodopa/kg, individual rats 1-3 (Table D)
[3] = with carbidopa; cited from earlier work
[4] = cited from earlier work
[5] = after oral administration; cited from earlier work
[6] = cited from earlier work; remark: listed apart in the source
in vivo = details: rat, plasma, iv, 0.4 mg/kg, Plasma level (levodopa), 0.4 mg levodopa/kg, individual rats 1-3 (Table D)
[7] = duodenal, 2 mg levodopa lauryl sulfate/rat (0.85 mg levodopa equivalent/rat), individual rats

## N[C@@H](Cc1ccc(O)c(O)c1)C(=O)O [Levodopa, (−)-L-(alpha)-amino-(beta)-(3,4-dihydroxybenzene) propanoic acid]
[1]; time 0 h
  Plasma level (levodopa): 0 ng/mL
[1]; time 0.033 h
  Plasma level (levodopa): 336 ng/mL and 247 ng/mL and 690 ng/mL
[1]; time 0.5 h
  Plasma level (levodopa): 16 ng/mL and 11.4 ng/mL and 41.6 ng/mL
[1]; time 1 h
  Plasma level (levodopa): 7.34 ng/mL and 11.5 ng/mL and 18.2 ng/mL
[1]; time 1.5 h
  Plasma level (levodopa): 6.51 ng/mL and 0 ng/mL and 13.8 ng/mL
[1]; time 2 h
  Plasma level (levodopa): 0 ng/mL and 5.82 ng/mL and 8.23 ng/mL
[1]; time 3 h
  Plasma level (levodopa): 0 ng/ml (2×) and 5.53 ng/ml
[1]; Sprague-Dawley, rat, plasma, 0.4 mg/kg, time 0 h
  concentration at 0 h: 0 ng/mL
[2]; time 0 h
  Plasma level (levodopa): 0 ng/mL
[2]; time 0.033 h
  Plasma level (levodopa): 336 ng/mL and 247 ng/mL and 690 ng/mL
[2]; time 0.5 h
  Plasma level (levodopa): 16 ng/mL and 11.4 ng/mL and 41.6 ng/mL
[2]; time 1 h
  Plasma level (levodopa): 7.34 ng/mL and 11.5 ng/mL and 18.2 ng/mL
[2]; time 1.5 h
  Plasma level (levodopa): 6.51 ng/mL and 0 ng/mL and 13.8 ng/mL
[2]; time 2 h
  Plasma level (levodopa): 0 ng/mL and 5.82 ng/mL and 8.23 ng/mL
[2]; time 3 h
  Plasma level (levodopa): 0 ng/ml (2×) and 5.53 ng/ml
[3]
  plasma half-life of levodopa: 1.5 h
[4]; after oral therapy (sustained-release tablets)
  average intraindividual coefficient of variation for the plasma levodopa concentrations: 34%
[4]; during continuous intestinal infusion, p<0.01
  average intraindividual coefficient of variation for the plasma levodopa concentrations: 14%
[5]
  time within which practically all absorption of levodopa occurs: ≤ 4 h
[6]
  solubility in water: slightly soluble in water
In vivo
  concentration at 0 h: 0 ng/mL

## C[C@@](Cc1ccc(O)c(O)c1)(NN)C(=O)O [Carbidopa, (−)-L-((alpha)-hydrazino-((alpha)-methyl-(beta)-(3,4-dihydroxybenzene)propanoic acid monohydrate]
[6]
  solubility in water: slightly soluble in water

## CCCCCCCCCCCCOS(=O)(=O)O.N[C@@H](Cc1ccc(O)c(O)c1)C(=O)O [Levodopa lauryl sulfate, Levodopa-Lauryl Sulfate Complex]
[7]; time 0 h
  Plasma level (levodopa): 9.42 ng/mL and 8.7 ng/mL and 8.55 ng/mL
[7]; time 1 h
  Plasma level (levodopa): 57.3 ng/mL and 51.3 ng/mL and 43.7 ng/mL
[7]; time 2 h
  Plasma level (levodopa): 21.3 ng/mL and 22 ng/mL and 9.24 ng/mL
[7]; time 3 h
  Plasma level (levodopa): 12 ng/mL and 11.6 ng/mL and 24 ng/mL
[7]; time 4 h
  Plasma level (levodopa): 8.07 ng/mL and 7.45 ng/mL and 19.6 ng/mL
